Target: T1, 1-phosphatidylinositol 3-phosphate 5-kinase [S696N,L932S,Q995L,T998S,S1033A,Q1183K] (Homo sapiens, UniProt Q9Y2I7, L932S/Q1183K/Q995L/S1033A/S696N/T998S)
T1 construct: gene PIKFYVE
Assay: PIKfyve Biochemical Assay
Protocol: The biochemical PIKfyve inhibition assays were run by Carna Biosciences according to proprietary methodology based on the Promega ADP-Glo™ Kinase assay. […] GST-PIKFYVE was purified by using glutathione sepharose chromatography and used in an ADP-Glo™ Kinase assay (Promega). Reactions were set up by adding the test compound solution, substrate solution, ATP solution and kinase solution, each at 4× final concentrations. Reactions were prepared with assay buffer (50 mM MOPS, 1 mM DTT, pH7.2), mixed, and incubated in black 384 well polystyrene plates for 1 hour at room temperature. ADP-Glo™ reagent was then added for 40 minutes, followed by kinase detection reagent for an additional 40 minutes. The kinase activity was evaluated by detecting relative light units on a luminescence plate reader. Samples were run in duplicate from 10 μM to 3 nM. […] IC50 values were calculated from concentration vs % inhibition curves by fitting to a four-parameter logistic curve.

T1 sequence (Q9Y2I7 2-2098 S696N/L932S/Q995L/T998S/S1033A/Q1183K limits assumed): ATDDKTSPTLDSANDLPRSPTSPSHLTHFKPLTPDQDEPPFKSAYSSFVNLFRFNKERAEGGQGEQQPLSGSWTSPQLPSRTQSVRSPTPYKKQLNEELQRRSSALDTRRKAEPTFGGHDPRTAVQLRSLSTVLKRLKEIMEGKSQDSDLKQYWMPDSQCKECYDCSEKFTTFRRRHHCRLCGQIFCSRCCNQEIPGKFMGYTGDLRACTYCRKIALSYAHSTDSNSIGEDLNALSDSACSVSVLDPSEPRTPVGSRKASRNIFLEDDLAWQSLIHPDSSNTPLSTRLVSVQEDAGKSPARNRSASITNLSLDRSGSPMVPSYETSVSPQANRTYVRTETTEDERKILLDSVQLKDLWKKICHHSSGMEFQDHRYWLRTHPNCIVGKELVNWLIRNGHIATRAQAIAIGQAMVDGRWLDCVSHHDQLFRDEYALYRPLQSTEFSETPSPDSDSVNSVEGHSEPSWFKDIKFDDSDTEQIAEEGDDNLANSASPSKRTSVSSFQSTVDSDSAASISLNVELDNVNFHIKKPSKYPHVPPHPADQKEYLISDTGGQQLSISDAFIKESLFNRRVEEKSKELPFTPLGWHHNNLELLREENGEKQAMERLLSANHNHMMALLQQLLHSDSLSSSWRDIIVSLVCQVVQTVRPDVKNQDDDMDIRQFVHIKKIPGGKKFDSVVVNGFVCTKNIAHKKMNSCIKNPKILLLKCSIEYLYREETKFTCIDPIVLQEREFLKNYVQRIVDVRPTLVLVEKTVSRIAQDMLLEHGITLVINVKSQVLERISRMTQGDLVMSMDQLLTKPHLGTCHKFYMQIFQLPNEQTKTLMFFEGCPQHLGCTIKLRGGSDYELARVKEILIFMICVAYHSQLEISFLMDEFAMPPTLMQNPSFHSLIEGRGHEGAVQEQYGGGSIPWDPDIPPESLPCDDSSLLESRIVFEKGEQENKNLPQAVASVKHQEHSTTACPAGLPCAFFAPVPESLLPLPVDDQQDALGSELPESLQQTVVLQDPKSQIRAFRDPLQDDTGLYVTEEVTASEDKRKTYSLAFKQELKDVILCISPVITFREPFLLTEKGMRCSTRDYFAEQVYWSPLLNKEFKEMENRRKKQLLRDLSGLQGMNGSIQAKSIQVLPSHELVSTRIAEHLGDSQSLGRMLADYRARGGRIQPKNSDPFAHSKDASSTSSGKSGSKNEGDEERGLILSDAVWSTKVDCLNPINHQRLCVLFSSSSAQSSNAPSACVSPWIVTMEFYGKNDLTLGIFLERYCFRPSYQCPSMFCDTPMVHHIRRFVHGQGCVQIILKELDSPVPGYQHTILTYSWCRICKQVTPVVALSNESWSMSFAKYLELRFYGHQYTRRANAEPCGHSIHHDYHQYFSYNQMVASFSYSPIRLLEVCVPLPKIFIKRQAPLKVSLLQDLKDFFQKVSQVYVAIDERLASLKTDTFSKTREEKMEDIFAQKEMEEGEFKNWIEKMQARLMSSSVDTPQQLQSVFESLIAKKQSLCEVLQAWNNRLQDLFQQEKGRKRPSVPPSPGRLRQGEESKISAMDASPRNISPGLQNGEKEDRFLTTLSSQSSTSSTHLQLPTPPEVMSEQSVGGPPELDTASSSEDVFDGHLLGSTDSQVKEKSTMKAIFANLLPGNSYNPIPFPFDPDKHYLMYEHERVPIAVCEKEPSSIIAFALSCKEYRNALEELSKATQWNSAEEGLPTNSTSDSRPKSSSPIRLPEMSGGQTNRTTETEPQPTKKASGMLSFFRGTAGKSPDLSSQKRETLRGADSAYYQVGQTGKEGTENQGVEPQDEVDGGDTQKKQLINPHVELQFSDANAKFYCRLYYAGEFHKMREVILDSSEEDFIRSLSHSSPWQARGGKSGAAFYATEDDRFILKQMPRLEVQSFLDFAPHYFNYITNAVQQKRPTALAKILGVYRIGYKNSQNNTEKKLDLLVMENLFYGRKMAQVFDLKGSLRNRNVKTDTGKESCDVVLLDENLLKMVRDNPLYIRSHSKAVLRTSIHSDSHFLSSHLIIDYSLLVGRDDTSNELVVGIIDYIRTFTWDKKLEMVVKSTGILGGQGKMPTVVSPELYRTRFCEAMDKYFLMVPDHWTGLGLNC

**Q.** For `c1ccc(-c2c[nH]c3c(-c4ccncc4)nc(N4CCOCC4)nc23)cc1` [US20250145642, Compound 135], which IC50 is on record?
**A.** < 10 nM
